Experimental data from BindingDB's records for doi:10.1038/nchembio.155 (University of California San Francisco, 2009).

Each compound was assayed against Beta-lactamase (Escherichia coli (strain K12), UniProt P00811) (assay: Beta-lactamase AmpC Inhibition Assay). Conditions: pH 7.
Description: Class C Beta-lactamase AmpC inhibition assay

Sequence of Beta-lactamase (P00811 whole entry): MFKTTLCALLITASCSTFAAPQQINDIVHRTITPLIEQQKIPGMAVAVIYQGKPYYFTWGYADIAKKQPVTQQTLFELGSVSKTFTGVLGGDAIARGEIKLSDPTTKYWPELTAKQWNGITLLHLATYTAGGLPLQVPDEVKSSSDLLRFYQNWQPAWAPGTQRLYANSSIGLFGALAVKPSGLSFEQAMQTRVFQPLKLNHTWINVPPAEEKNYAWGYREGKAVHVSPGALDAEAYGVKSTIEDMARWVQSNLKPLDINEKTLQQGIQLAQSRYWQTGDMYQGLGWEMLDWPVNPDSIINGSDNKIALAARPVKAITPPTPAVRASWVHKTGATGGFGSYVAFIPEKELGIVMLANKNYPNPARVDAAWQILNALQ

In order of falling Ki:
1. O=C(O)CN1C(=O)O[C@@H](c2ccccc2)C1=O [CID25181261]  3.5 mM
2. O=C1c2ccccc2C(=O)N1CCc1nnn[nH]1 [CID7129233]  3.3 mM
3. CCc1c(C)[nH]n(-c2nnn[nH]2)c1=O [CID7357365]  3.1 mM
4. O=C(Nc1cccc(-c2nnn[nH]2)c1)c1cccc(F)c1 [CID8067740]  2.8 mM
5. C[C@@H](C(=O)O)N1C(=O)C2C3CCC(C3)C2C1=O (stereo partly specified) [CID25181259]  2.2 mM
6. O=c1c2c3c(sc2ncn1Cc1nn[nH]n1)CCCC3 [CID 7263523]  1.5 mM
